What was measured:
Tolloid-like protein 2 = target: T1, Tolloid-like protein 2 (Homo sapiens, UniProt Q9Y6L7); assay: Inhibition of C-terminal Avi-6x-His epitope tagged and N-terminal human RAGE signal sequence tagged recombinant human TLL2 (26 to 1015 amino acids) expressed in CHOE1A cells incubated for 60 mins with promyostatin peptide substrate by FRET based assay; assay type: cell-based
T1 sequence (Q9Y6L7 whole entry): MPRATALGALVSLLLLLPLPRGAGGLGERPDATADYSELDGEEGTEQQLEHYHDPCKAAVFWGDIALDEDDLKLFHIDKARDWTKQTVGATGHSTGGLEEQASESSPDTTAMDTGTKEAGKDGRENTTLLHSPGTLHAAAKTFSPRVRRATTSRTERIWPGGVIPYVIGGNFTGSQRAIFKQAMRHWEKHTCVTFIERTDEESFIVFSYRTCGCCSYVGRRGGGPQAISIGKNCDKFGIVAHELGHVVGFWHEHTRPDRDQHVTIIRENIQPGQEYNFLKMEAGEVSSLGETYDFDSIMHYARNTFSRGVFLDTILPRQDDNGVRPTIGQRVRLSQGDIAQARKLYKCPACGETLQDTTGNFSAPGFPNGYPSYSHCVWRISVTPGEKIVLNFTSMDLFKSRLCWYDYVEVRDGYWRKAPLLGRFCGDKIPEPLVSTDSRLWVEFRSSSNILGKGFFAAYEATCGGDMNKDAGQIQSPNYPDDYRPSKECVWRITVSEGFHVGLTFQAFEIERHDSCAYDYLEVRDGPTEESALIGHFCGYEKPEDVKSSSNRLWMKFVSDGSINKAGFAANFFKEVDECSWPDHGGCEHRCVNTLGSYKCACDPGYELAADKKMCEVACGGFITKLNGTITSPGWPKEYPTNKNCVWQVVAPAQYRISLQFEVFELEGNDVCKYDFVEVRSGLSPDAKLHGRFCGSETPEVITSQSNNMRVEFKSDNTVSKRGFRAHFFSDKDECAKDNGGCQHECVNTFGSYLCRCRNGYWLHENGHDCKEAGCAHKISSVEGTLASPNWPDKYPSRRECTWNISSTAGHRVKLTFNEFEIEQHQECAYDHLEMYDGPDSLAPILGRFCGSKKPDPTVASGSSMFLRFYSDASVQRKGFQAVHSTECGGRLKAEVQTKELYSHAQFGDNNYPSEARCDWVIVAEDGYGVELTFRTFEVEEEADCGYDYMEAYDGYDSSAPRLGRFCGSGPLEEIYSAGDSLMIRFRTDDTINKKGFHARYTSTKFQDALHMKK

[1] = Reduction in PICP levels in human cardiac fibroblasts incubated for 24 to 48 hrs by ELISA; assay type: functional
Method in brief: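 Human cardiac fibroblasts no older than passage 6 were seeded at 10,000 to 15,000 cells per well in 96-well plates and, one day later, exposed for 24 to 48 hr at 37° C to treatment in ficoll crowding EMEM with 100 μM ascorbic acid and less than 0.3% DMSO. IC50 was determined in GraphPad Prism from a log(inhibitor)-response fit of procollagen I C-terminal propeptide levels in the medium, measured by Quidel ELISA and expressed relative to untreated controls.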

Tolloid-like protein 1 = Tolloid-like protein 1 (Homo sapiens, UniProt O43897, I156V/N221S/V284A); assay: Inhibition of recombinant human TLL1 I156V/N221S/V284A mutant expressed in CHOE1A cells pre-incubated for 10 mins before promyostatin peptide substrate addition and measured after 60 mins by FRET based assay; assay type: cell-based
[2] = target: T2, Bone morphogenetic protein 1 (Homo sapiens, UniProt P13497); assay: Inhibition of C-terminal FLAG-6x-His epitope tagged and N-terminal human RAGE signal sequence tagged human BMP1 (23 to 721 amino acids) expressed in CHO-E1 cells pre-incubated for 10 mins before promyostatin peptide substrate addition and measured after 30 mins using 50 nM BMP1 by FRET based assay; assay type: cell-based
T2 sequence (P13497 whole entry): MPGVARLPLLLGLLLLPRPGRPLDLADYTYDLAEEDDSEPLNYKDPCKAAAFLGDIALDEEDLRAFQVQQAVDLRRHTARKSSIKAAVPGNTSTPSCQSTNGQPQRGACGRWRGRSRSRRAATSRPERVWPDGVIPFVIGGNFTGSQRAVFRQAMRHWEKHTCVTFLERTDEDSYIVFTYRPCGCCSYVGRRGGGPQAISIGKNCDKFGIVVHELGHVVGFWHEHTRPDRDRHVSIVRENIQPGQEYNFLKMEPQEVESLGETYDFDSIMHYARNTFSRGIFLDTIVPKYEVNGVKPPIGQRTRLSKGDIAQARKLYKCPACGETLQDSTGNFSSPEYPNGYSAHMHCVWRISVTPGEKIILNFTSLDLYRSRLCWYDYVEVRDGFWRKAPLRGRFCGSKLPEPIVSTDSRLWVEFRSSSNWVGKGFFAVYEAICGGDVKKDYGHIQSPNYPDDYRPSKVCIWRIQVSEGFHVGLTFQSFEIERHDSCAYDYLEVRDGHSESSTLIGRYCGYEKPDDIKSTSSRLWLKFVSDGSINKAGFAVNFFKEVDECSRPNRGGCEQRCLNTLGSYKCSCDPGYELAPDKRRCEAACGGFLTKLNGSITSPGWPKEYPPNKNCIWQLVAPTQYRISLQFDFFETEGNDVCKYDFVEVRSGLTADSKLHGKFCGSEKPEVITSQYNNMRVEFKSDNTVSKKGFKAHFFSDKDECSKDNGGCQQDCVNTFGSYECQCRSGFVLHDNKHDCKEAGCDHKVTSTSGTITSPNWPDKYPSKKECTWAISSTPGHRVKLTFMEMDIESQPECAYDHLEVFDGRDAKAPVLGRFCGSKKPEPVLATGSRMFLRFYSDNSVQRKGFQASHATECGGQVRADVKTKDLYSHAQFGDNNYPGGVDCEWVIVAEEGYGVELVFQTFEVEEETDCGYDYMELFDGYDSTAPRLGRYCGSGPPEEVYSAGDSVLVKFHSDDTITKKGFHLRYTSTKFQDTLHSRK

[3] = Reduction in mature collagen deposition levels in human cardiac fibroblasts incubated for 24 to 48 hrs by immunostaining based assay; assay type: functional
Method in brief: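 Methanol fixation at −20° C for 10 min followed a 24 to 48 hr treatment at 37° C of human cardiac fibroblasts in 96-well plates, in ficoll crowding EMEM with 100 μM ascorbic acid and DMSO under 0.3%. Imaging on an Operetta system captured anti-mature collagen I staining, detected with an Alexa647 secondary antibody, alongside Hoechst-stained nuclei. In GraphPad Prism, an IC50 was fitted to collagen intensity normalised to nuclei count per field.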

[4] = target: T2, Bone morphogenetic protein 1; assay: Inhibition of C-terminal FLAG-6x-His epitope tagged and N-terminal human RAGE signal sequence tagged human BMP1 (23 to 721 amino acids) expressed in CHO-E1 cells pre-incubated for 10 mins before promyostatin peptide substrate addition and measured after 60 mins using 0.5 nM BMP1 by FRET based assay; assay type: cell-based

Sequence of Tolloid-like protein 1 (O43897 148-1013 I156V/N221S/V284A limits assumed): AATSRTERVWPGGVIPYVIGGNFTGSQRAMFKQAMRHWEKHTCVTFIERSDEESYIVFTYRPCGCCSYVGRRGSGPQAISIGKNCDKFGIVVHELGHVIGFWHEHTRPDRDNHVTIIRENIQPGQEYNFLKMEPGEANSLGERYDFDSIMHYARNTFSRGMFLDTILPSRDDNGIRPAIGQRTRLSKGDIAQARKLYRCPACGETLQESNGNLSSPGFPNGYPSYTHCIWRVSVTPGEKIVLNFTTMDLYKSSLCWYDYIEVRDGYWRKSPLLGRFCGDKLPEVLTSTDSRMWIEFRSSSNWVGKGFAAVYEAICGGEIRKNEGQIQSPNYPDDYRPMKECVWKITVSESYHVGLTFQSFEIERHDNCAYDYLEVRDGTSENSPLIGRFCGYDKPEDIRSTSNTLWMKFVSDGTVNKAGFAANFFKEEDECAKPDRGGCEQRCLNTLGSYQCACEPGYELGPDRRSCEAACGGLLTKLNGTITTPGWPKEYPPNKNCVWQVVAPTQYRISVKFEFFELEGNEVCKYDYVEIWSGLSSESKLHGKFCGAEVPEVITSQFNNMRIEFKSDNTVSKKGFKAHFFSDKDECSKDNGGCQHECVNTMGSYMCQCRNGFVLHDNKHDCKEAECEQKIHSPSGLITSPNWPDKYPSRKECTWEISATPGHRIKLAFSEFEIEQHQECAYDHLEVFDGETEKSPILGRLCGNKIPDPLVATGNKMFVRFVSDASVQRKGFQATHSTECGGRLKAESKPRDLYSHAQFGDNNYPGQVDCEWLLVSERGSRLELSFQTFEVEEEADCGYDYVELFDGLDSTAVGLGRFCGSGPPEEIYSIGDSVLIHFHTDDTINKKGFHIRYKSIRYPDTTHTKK

Q: For `CCCCC[C@@H](C(=O)NCNC(=O)c1ccc(-c2cc(OCC)cc(C(=O)N[C@@H](CC(=O)O)C(=O)OC(C)(C)C)c2)o1)[C@@H](CC)N(O)C=O`, which IC50 (Tolloid-like protein 2) is on record?
A: Its IC50 is under 0.794 µM.

Q: What about the IC50 [1] of the same compound?
A: Its IC50 is under 3.98 µM.

Q: And the IC50 (Tolloid-like protein 1)?
A: The IC50 was under 0.398 µM.

Q: And the IC50 [2]?
A: The IC50 was under 0.2 µM.

Q: And the IC50 [3]?
A: Its IC50 is under 1 µM.

Q: What about the IC50 [4] of the same compound?
A: The IC50 was under 0.126 µM.

Q: Which IC50 (Tolloid-like protein 2) does the source give for `CCCCC[C@@H](C(=O)NCNC(=O)c1ccc(-c2ccc(C(=O)NCP(=O)(O)O)c(O)c2)o1)[C@@H](CC)N(O)C=O` here?
A: The IC50 was under 0.794 µM.

Q: And the IC50 [1]?
A: The IC50 was under 3.98 µM.

Q: What about the IC50 (Tolloid-like protein 1) of the same compound?
A: Its IC50 is under 0.398 µM.

Q: What about the IC50 [2] of the same compound?
A: The IC50 was under 0.2 µM.

Q: What about the IC50 [4] of the same compound?
A: The IC50 was under 0.126 µM.

Q: Which results are given for `CCCCC[C@@H](C(=O)NCNC(=O)c1ccc(-c2ccc(C(=O)N[C@@H](CCC(=O)O)C(=O)O)c(OCC)c2)o1)[C@@H](CC)N(O)C=O`?
A: IC50 (Tolloid-like protein 2): < 0.794 µM; IC50 [1]: < 3.98 µM; IC50 (Tolloid-like protein 1): < 0.398 µM; IC50 [2]: < 0.2 µM; IC50 [4]: < 0.126 µM

Q: With `CCCCC[C@@H](C(=O)NCNC(=O)c1ccc(-c2cc(CN(C)CC(=O)O)cc(OCC)c2)o1)[C@@H](CC)N(O)C=O` as the compound, how does the IC50 (Tolloid-like protein 2) read?
A: Its IC50 is under 0.794 µM.

Q: And the IC50 [1]?
A: Its IC50 is under 3.98 µM.

Q: And the IC50 (Tolloid-like protein 1)?
A: Its IC50 is under 0.398 µM.

Q: What about the IC50 [2] of the same compound?
A: Its IC50 is under 0.2 µM.

Q: And the IC50 [4]?
A: Its IC50 is under 0.126 µM.

Q: With `CCCCC[C@@H](C(=O)NCNC(=O)c1ccc(-c2ccc(C(=O)NCP(=O)(O)O)cc2)o1)[C@@H](CC)N(O)C=O` as the compound, how does the IC50 (Tolloid-like protein 2) read?
A: The IC50 was under 0.794 µM.

Q: What about the IC50 [1] of the same compound?
A: Its IC50 is under 3.98 µM.

Q: And the IC50 (Tolloid-like protein 1)?
A: The IC50 was under 0.398 µM.

Q: What about the IC50 [2] of the same compound?
A: The IC50 was under 0.2 µM.

Q: And the IC50 [4]?
A: The IC50 was under 0.126 µM.

Q: Which IC50 (Tolloid-like protein 2) does the source give for `CCCCC[C@@H](C(=O)NCNC(=O)c1ccc(-c2cc(OCC(=O)O)cc(P(=O)(O)O)c2)o1)[C@@H](CC)N(O)C=O` here?
A: The IC50 was under 0.794 µM.

Q: And the IC50 [1]?
A: The IC50 was under 3.98 µM.

Q: What about the IC50 (Tolloid-like protein 1) of the same compound?
A: Its IC50 is under 0.398 µM.

Q: And the IC50 [2]?
A: Its IC50 is under 0.2 µM.

Q: What about the IC50 [4] of the same compound?
A: Its IC50 is under 0.126 µM.

Q: Which results are given for `CCCCC[C@@H](C(=O)NCNC(=O)c1ccc(-c2cc(CNCP(=O)(O)O)cc(OCC)c2)o1)[C@@H](CC)N(O)C=O`?
A: IC50 (Tolloid-like protein 2): < 0.794 µM; IC50 [1]: < 3.98 µM; IC50 (Tolloid-like protein 1): < 0.398 µM; IC50 [2]: < 0.2 µM; IC50 [4]: < 0.126 µM

Q: For `CCOc1cc(-c2ccc(C(=O)NCNC(=O)[C@H](CCc3ccccc3)[C@@H](CC)N(O)C=O)o2)cc(P(=O)(O)O)c1`, which IC50 (Tolloid-like protein 2) is on record?
A: Its IC50 is under 0.794 µM.

Q: And the IC50 [1]?
A: The IC50 was under 3.98 µM.

Q: What about the IC50 (Tolloid-like protein 1) of the same compound?
A: The IC50 was under 0.398 µM.

Q: What about the IC50 [2] of the same compound?
A: The IC50 was under 0.2 µM.

Q: What about the IC50 [4] of the same compound?
A: Its IC50 is under 0.126 µM.

Q: Which results are given for `CCCCC[C@@H](C(=O)NCNC(=O)c1ccc(-c2cccc(C3(C(=O)O)CC3)c2)o1)[C@@H](CC)N(O)C=O`?
A: IC50 (Tolloid-like protein 2): < 0.794 µM; IC50 [1]: < 3.98 µM; IC50 (Tolloid-like protein 1): < 0.398 µM; IC50 [2]: < 0.2 µM; IC50 [3]: < 1 µM; IC50 [4]: < 0.126 µM

Q: For `CCCCC[C@@H](C(=O)NCNC(=O)c1ccc(-c2ccc(C(=O)N(CC(=O)O)CC(=O)O)cc2)o1)[C@@H](CC)N(O)C=O`, which IC50 (Tolloid-like protein 2) is on record?
A: Its IC50 is under 0.794 µM.

Q: And the IC50 [1]?
A: The IC50 was under 3.98 µM.

Q: What about the IC50 (Tolloid-like protein 1) of the same compound?
A: Its IC50 is under 0.398 µM.

Q: And the IC50 [2]?
A: Its IC50 is under 0.2 µM.

Q: And the IC50 [4]?
A: Its IC50 is under 0.126 µM.

Q: Which IC50 (Tolloid-like protein 2) does the source give for `CCCCC[C@@H](C(=O)NCNC(=O)c1ccc(-c2ccc(C(=O)NCP(=O)(O)O)c(C)c2)o1)[C@@H](CC)N(O)C=O` here?
A: The IC50 was under 0.794 µM.

Q: What about the IC50 [1] of the same compound?
A: Its IC50 is under 3.98 µM.

Q: And the IC50 (Tolloid-like protein 1)?
A: The IC50 was under 0.398 µM.

Q: And the IC50 [2]?
A: The IC50 was under 0.2 µM.

Q: What about the IC50 [4] of the same compound?
A: The IC50 was under 0.126 µM.

— ChEMBL document CHEMBL4476867, “Hydroxy formamide derivatives and their use” (2016)
